For data set [1], the system named is murine myometrial tissue (PGF2α-induced contractions; FP). The data set can be described thus: ex vivo mouse myometrial tissue contraction assay (PGF2α-induced). Details: species or system mouse (CD-1). To be noted: post-partum CD-1 mouse myometrial strips, Krebs buffer pH 7.4, 37 °C, 20 min pretreatment with peptide at two concentrations, then PGF2α; 4–6 experiments per group, means ± SEM, t-test, p < 0.05 vs vehicle. Here is the method: All the peptides were initially tested in an ex vivo mouse myometrial tissue contraction assay. Contractile activity was measured on tissue that was harvested post-partum and treated with prostaglandin F2α (PGFα) alone (control) or in the presence of peptides L-4b-4g, L-7, and L-8. […] Mean tension induced by KCl (as a positive control) was not affected by L-4d.
Pregnant CD-1 mice (16-17 days gestation, term 19 days) were obtained from Charles River Inc. and used according to a protocol of the Animal Care Committee of Hôpital Sainte-Justine according to the principles of the Guide for the Care and Use of Experimental Animals of the Canadian Council on Animal Care. The animals were maintained on standard laboratory chow under a 12:12 light:dark cycle and allowed free access to chow and water.
The uterus from the CD-1 mouse was obtained from the animal immediately after term delivery under anesthesia (2.5% isoflurane). Briefly, a midline abdominal incision was made and the uterine horns were rapidly excised, cleansed carefully of the surrounding connective tissues, and removed. Longitudinal myometrial strips (2 to 3 mm wide and 1 cm long) were dissected free from the uterus and mounted isometrically in organ tissue baths. The initial tension was set at 2 g. The tissue baths contained 20 mL of Krebs buffer of the following composition (in mM): 118 NaCl, 4.7 KCl, 2.5 CaCl2, 0.9 MgSO4, 1 KH2PO4, 11.1 glucose, and 23 NaHCO3 (pH 7.4). The buffer was equilibrated with 95% oxygen/5% carbon dioxide at 37 °C. Isometric tension was measured by a force transducer and recorded by a BIOPAC data acquisition system (BIOPAC MP150, Montreal, PQ, Canada). Experiments were begun after 1 h equilibration. Mean tension of spontaneous contractions was measured using a BIOPAC digital polygraph system (AcqKnowledge); the same parameters were also determined after addition of PGF2α in the presence or the absence of a 20 min-pretreatment with different FP inhibitors. At the start of each experiment, mean tension of spontaneous myometrial contractions was considered as a reference response. Changes in mean tension (g) were expressed as percentages of the initial reference response (% of baseline).
At the start of each experiments, mean tension of spontaneous myometrial contractions was considered as a reference response. Increase in mean tension (%) was expressed as percentages of (X/Y)-100, where X is the change in mean tension (g) induced by PGF2α and Y is the initial reference response (g). Data are representative of 4–6 experiments per treated group. All results are expressed as means ± SEM and were compared by Independent t-tests. Statistical tests were performed with GraphPad Prism 4.3 software and p < 0.05 was considered statistically significant.

Data set [2] in a line: solubility in water (observation on handling). The data set is classed as physicochemical. To be noted: qualitative observation on the purified, freeze-dried peptide. Here is the method:
Linear sequences of L- and D-PDC31 linked to 2-chlorotrityl resin (L- and D-1) were obtained by solid phase peptide synthesis using standard Fmoc/t-Bu protocols. Peptide resin L-1 was treated with the appropriate aldehyde 2 (Scheme 1). The imine resin was washed to remove excess aldehyde, and reductive amination was performed using sodium cyanoborohydride to provide secondary amine resin 3. Removal of the protecting groups and resin cleavage were achieved using a cocktail of 95:2.5:2.5 TFA:TES:H2O to provide N-alkyl- and N-PEG-grafted peptides 4, which were purified by RP-HPLC (Table 1). […] An inseparable mixture of mono- and bis-N-alkyl peptides was isolated by HPLC from reaction with aldehyde of shorter chain length.
Increased lipophilic character may promote peptide aggregation and decrease solubility in aqueous solvent. […] For biological assays, solubility issues were surmounted by forming salts and using small amounts of DMSO. The influence of their amphiphilic character during purification by RP-HPLC and double alkylation from the reductive amination sequence may account for the lower isolated yields of peptides 4, 7 and 8.

“Also recorded” adds a separate entry of the source. Structures can show the parent of a compound that is named as a salt. Residues, ends and D or L forms follow the SMILES beside them.

As for “N-Octadecanyl-Ile-Leu-Gly-His-Cit-Asp-Tyr-Lys-OH [L-4f]”, the “effect on PGF2α-induced contractions (mean tension) of myometrial tissue” value (“effect on PGF2α-induced contractions” below) in data set [1] is “trends suggesting protective effects; also recorded: not statistically significant”. For the same compound, in data set [2], the solubility in water result is “required a small amount of DMSO to completely dissolve; also recorded: aqueous solubility issues; also recorded: poorly soluble in water”.

On to `CCCCCCCCCCCC(=O)N[C@H](C(=O)N[C@@H](CC(C)C)C(=O)NCC(=O)N[C@@H](Cc1c[nH]cn1)C(=O)N[C@@H](CCCNC(N)=O)C(=O)N[C@@H](CC(=O)O)C(=O)N[C@@H](Cc1ccc(O)cc1)C(=O)N[C@@H](CCCCN)C(=O)O)[C@@H](C)CC` [L-8 HCl salt] (HELM PEPTIDE1{[CCCCCCCCCCCC(=O)[*:2]].I.L.G.H.[Cit].D.Y.K}$$$$V2.0), for which the solubility in water result in data set [2] (listed as 8 hydrochloride salt) is listed as “dissolved readily in water”.

`CCCCCCN[C@H](C(=O)N[C@@H](CC(C)C)C(=O)NCC(=O)N[C@@H](Cc1c[nH]cn1)C(=O)N[C@@H](CCCNC(N)=O)C(=O)N[C@@H](CC(=O)O)C(=O)N[C@@H](Cc1ccc(O)cc1)C(=O)N[C@@H](CCCCN)C(=O)O)[C@@H](C)CC` [L-4b, N-Hexanyl-Ile-Leu-Gly-His-Cit-Asp-Tyr-Lys-OH] (HELM PEPTIDE1{[CCCCCCN[C@H](C(=O)[*:2])[C@@H](C)CC].L.G.H.[Cit].D.Y.K}$$$$V2.0): the “effect on PGF2α-induced contractions” value in data set [1] was “trends suggesting protective effects; also recorded: not statistically significant”.

`CCCCCCCCCCCCCN[C@H](C(=O)N[C@@H](CC(C)C)C(=O)NCC(=O)N[C@@H](Cc1c[nH]cn1)C(=O)N[C@@H](CCCNC(N)=O)C(=O)N[C@@H](CC(=O)O)C(=O)N[C@@H](Cc1ccc(O)cc1)C(=O)N[C@@H](CCCCN)C(=O)O)[C@@H](C)CC` [L-4e, N-Tridecanyl-Ile-Leu-Gly-His-Cit-Asp-Tyr-Lys-OH] (HELM PEPTIDE1{[CCCCCCCCCCCCCN[C@H](C(=O)[*:2])[C@@H](C)CC].L.G.H.[Cit].D.Y.K}$$$$V2.0): the solubility in water result in data set [2] is reported as “Except for peptide 4e, bearing the 18-carbon alkyl chain, peptides 4 were all soluble in water”.

Regarding `CCCCCCCCCCCC(=O)N[C@H](C(=O)N[C@@H](CC(C)C)C(=O)NCC(=O)N[C@@H](Cc1c[nH]cn1)C(=O)N[C@@H](CCCNC(N)=O)C(=O)N[C@@H](CC(=O)O)C(=O)N[C@@H](Cc1ccc(O)cc1)C(=O)N[C@@H](CCCCN)C(=O)O)[C@@H](C)CC` [L-8, N-Dodecanoyl-Ile-Leu-Gly-His-Cit-Asp-Tyr-Lys-OH] (HELM PEPTIDE1{[CCCCCCCCCCCC(=O)[*:2]].I.L.G.H.[Cit].D.Y.K}$$$$V2.0), the “effect on PGF2α-induced contractions” value in data set [1] was “inactive”. The solubility in water result in data set [2] was “poor solubility; also recorded: aqueous solubility issues”.

For `CC[C@H](C)[C@H](NCCOCCOCCOCCOC)C(=O)N[C@@H](CC(C)C)C(=O)NCC(=O)N[C@@H](Cc1c[nH]cn1)C(=O)N[C@@H](CCCNC(N)=O)C(=O)N[C@@H](CC(=O)O)C(=O)N[C@@H](Cc1ccc(O)cc1)C(=O)N[C@@H](CCCCN)C(=O)O` [L-4g, N-2,7,8,11-tetraoxytetradecane-Ile-Leu-Gly-His-Cit-Asp-Tyr-Lys-OH] (HELM PEPTIDE1{[CC[C@H](C)[C@H](NCCOCCOCCOCCOC)C(=O)[*:2]].L.G.H.[Cit].D.Y.K}$$$$V2.0), in data set [1], the “effect on PGF2α-induced contractions” value was “Neither PEGylated peptide L-4g nor N-farnesyl peptide L-7 exhibited activity”.

For `CCCCCCCCCCCCN[C@@H](C(=O)N[C@H](CC(C)C)C(=O)NCC(=O)N[C@H](Cc1c[nH]cn1)C(=O)N[C@H](CCCNC(N)=O)C(=O)N[C@H](CC(=O)O)C(=O)N[C@H](Cc1ccc(O)cc1)C(=O)N[C@H](CCCCN)C(=O)O)[C@H](C)CC` [D-4d, N-Dodecyl-D-Ile-D-Leu-Gly-D-His-D-Cit-D-Asp-D-Tyr- D-Lys-OH] (HELM PEPTIDE1{[CCCCCCCCCCCCN[C@@H](C(=O)[*:2])[C@H](C)CC].[dL].G.[dH].[NC(=O)NCCC[C@@H](N[*:1])C(=O)[*:2]].[dD].[dY].[dK]}$$$$V2.0), the “effect on PGF2α-induced contractions” value in data set [1] is “trends suggesting protective effects; also recorded: lower potency than the unmodified D-peptide, PDC-31”.

(Values after PMC6891598, “Application of N-Dodecyl L-Peptide to Enhance Serum Stability while Maintaining Inhibitory Effects on Myometrial Contractions Ex Vivo” (Molecules, 2019).)
